According to patent US20130142815A1, “ALPHA-METHYL-TRYPTOPHAN AS AN INHIBITOR OF INDOLEAMINE DIOXYGENASE” (Georiga Health Sciences Univ. Research Inst., Inc., priority 2010, published 2013):
Each block holds one molecule with its values, some of them ahead of it.

How the values were obtained:
ATB0,+ [1] = target: T1, ATB0,+ (Homo sapiens, UniProt Q9UN76); assay: Inward currents in ATB0,+-expressing Xenopus oocytes; format: cell-based; design: expressed in transfected cells; host or cells: Xenopus oocytes
T1 sequence (Q9UN76 1-642): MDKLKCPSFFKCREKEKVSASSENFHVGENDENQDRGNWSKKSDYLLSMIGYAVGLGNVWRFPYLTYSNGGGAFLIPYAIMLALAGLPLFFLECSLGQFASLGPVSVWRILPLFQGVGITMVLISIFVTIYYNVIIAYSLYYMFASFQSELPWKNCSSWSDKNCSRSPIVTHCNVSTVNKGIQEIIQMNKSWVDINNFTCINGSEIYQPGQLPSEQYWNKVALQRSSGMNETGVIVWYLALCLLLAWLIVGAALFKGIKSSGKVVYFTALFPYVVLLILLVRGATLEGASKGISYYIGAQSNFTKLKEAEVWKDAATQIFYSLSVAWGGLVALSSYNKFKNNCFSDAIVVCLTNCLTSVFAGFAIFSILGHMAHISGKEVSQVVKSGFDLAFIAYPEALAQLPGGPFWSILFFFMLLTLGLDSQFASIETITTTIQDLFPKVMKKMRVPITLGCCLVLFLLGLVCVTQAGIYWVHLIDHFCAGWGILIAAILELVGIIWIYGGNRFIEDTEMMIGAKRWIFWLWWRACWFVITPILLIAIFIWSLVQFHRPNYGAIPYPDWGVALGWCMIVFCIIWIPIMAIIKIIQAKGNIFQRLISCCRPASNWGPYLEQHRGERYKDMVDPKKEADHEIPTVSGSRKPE
Description: Tryptophan is a substrate for ATB^0,+. […] Inhibition of glycine uptake could occur because α-MT is a transportable substrate for ATB^0,+ thus competing with glycine for the uptake process, or because it blocks the transporter without itself being transported. The Xenopus oocyte expression system can differentiate between these two modes of inhibition because transportable substrates would induce inward currents whereas blockers would not.
Next, the potency of α-MT to block the transporter under conditions that simulate those in vivo was determined (with all naturally occurring amino acids present at physiologic concentrations). ATB^0,+ accepts all proteinogenic amino acids except glutamate and aspartate. Therefore, using the Xenopus oocyte expression system, the transport activity of human ATB^0,+ was monitored in the presence of an amino acid mixture consisting of all proteinogenic amino acids, each at its respective physiologic concentration found in plasma. Inward currents were detected under these conditions in oocytes expressing human ATB^0,+. α-MT blocked the ATB^0,+-mediated inward currents in the presence of these amino acids. The inhibition was dose-dependent; the concentration of the blocker necessary to elicit 50% maximal inhibition was 255±24 μM (Karunakaran et al., 2008, Biochem J; 414: 343-355).
Although α-methyl-DL-tryptophan is a blocker of ATB^0,+, its potency is weak. […] The only commercially available α-methyltryptophan is the DL-form. Thus, an optical resolution method was developed to separate the L-isomer from the DL-form (FIG. 2). With this method, the L- and D-isomers of this compound were purified. The potencies of the two isomers as a blocker of ATB^0,+ was examined in Xenopus oocytes using the amino acid mixture simulating the plasma. The concentration of the L-isomer to elicit 50% maximal inhibition was 18±5 μM. This value is 14 times less than the corresponding value for the DL-form. With the D-isomer, the inhibition never increased beyond 40% even at 1 mM.

MCF7 cells = assay: Mouse xenograft, MCF7 ER-positive breast cancer cell line; format: in vivo; details: in drinking water (2 mg/ml); in the presence of estrogen administration
Description: (§1) Mouse xenograft studies were performed with two ER-positive breast cancer cell lines (ZR75.1 and MCF7) and one ER-negative breast cancer cell line (MB231). […] Plasma concentration of alpha-methyltryptophan in mice after two weeks of administration in drinking water was […] was not detectable in control mice.

ATB0,+ [2] = target: T1, ATB0,+; details: cited from earlier work
ZR75.1 cells = assay: Mouse xenograft, ZR75.1 ER-positive breast cancer cell line; format: in vivo; details: in drinking water (2 mg/ml)
Description: as §1

ATB0,+ [3] = target: T1, ATB0,+; design: expressed in transfected cells; host or cells: Xenopus oocytes; details: tells transportable substrate from blocker; cited from earlier work
mouse colon cancer cells = assay: Mouse model of colon cancer, subcutaneous injection of mouse colon cancer cells; format: in vivo
Description: Further, alpha-methyltryptophan was administered in a mouse model of colon cancer. Following subcutaneous injection of mouse colon cancer cells into mice, mice were treated with alpha-methyltryptophan, either in drinking water or by intraperintoneal injection.

MB231 cells = assay: Mouse xenograft, MB231 ER-negative breast cancer cell line; format: in vivo; details: in drinking water (2 mg/ml)
Description: as §1

[4] = target: T2, indoleamine dioxygenase (IDO) (Mus musculus, UniProt P28776); assay: Cell-free IDO inhibition assay with mouse intestinal mucosal lysates as the source of IDO; format: biochemical
T2 construct: mouse intestinal mucosal lysates were used as the source of IDO in a cell-free assay system; from tissue; host or cells: mouse intestinal mucosa (lysate)
Description: FIG. 1 presents the comparative potencies of D-, L-, and DL-isomers of 1-methyltryptophan (1-MT) and alpha-methyltryptophan (alpha-MT) for inhibition of indoleamine dioxygenase (IDO). […] In these studies, mouse intestinal mucosal lysates were used as the source of IDO in a cell-free assay system. Thus, α-MLT will produce anti-cancer effects in vivo by two different, but synergistic, mechanisms. It will block the transport function of ATB^0,+ in tumor cells, thus preventing entry of essential amino acids and glutamine, and consequently causing growth arrest and apoptosis.

IDO in DCs = target: T3, IDO in DCs (Mus musculus, UniProt P28776); assay: Mixed lymphocyte reaction: suppression of CD8+ T cell proliferation by IDO-positive DCs, [3H]thymidine incorporation; format: cell-based
T3 construct: endogenous in cells; host or cells: CD11c+ dendritic cells from a CpG 1826-treated C57Bl6 mouse
Description: This example complements the cell-free in vitro measurements of IDO activity shown in Example 1 with a functional assay involving T cell proliferation. In this assay, CD8^+ T cells from a transgenic mouse (01.1) which carries the T-cell receptor specific for the ovalbumin peptide antigen Ser-Ile-Ile-Asn-Phe-Glu-Lys-Leu (SIINFEKL) were used. CD11c^+ dendritic cells (DCs) were also prepared from a C57B16 mouse that has been given CpG 1826 intravenously to induce IDO in DCs. A mixed lymphocyte reaction was then performed in which the ability of IDO-positive DCs to suppress the proliferation of CD8^+ T cells was monitored using [^3H]thymidine incorporation as the read-out. Thymidine incorporation in these T cells in the absence of DCs was taken as the control. When the T cells were cultured in the presence of IDO-positive DCs (10^5 cells), thymidine incorporation in T cells was suppressed by 63±3%. […] It is important to note that the concentration of α-MLT needed to inhibit IDO in DCs in this cell-based ex-vivo assay system (0.2 μM) is almost two orders of magnitude less than the IC50 observed for the inhibition of IDO in the cell-free assay system (˜20 μM). Based on these findings, it is expected that α-MLT will function as an anti-cancer agent in vivo by acting through two different mechanisms. […]

T2 sequence (P28776 whole entry): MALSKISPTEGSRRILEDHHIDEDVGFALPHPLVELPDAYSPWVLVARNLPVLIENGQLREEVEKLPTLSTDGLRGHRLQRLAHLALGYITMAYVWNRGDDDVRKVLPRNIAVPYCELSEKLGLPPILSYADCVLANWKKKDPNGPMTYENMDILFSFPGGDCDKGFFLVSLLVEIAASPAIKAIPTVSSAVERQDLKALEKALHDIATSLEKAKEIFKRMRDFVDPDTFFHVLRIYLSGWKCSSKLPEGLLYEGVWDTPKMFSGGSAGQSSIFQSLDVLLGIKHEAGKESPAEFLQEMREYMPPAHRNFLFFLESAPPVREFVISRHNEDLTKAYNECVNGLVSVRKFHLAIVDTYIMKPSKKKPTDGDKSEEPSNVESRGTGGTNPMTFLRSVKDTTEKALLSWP
T3 sequence (P28776 whole entry): as above

- potency as a blocker of ATB0,+ (in words) (ATB0,+ [1]): weak
Molecule: CC(N)(Cc1c[nH]c2ccccc12)C(=O)O (racemic) [α-methyl-DL-tryptophan]
- growth of MCF7 cells in xenograft (MCF7 cells): did not effect the growth
- effect on ATB0,+-mediated glycine uptake (ATB0,+ [2]): inhibited
- growth of ZR75.1 cells in xenograft (ZR75.1 cells): reduced growth
- induction of inward currents in ATB0,+-expressing Xenopus oocytes (ATB0,+ [3]): did not induce inward currents
- reduction of tumor growth (mouse colon cancer cells; in drinking water): approximately 50%
- reduction of tumor growth (mouse colon cancer cells; intraperitoneal injection): approximately 50%
- growth of MB231 cells in xenograft (MB231 cells): did not effect the growth
- potency as an IDO inhibitor (comparison, FIG. 1) [4]: significantly greater than that of 1-methyltryptophan

- inhibition at 1000 µM (ATB0,+ [1]; even at 1 mM, Xenopus oocytes, amino acid mixture simulating the plasma): ≤ 40%
Molecule: C[C@@](N)(Cc1c[nH]c2ccccc12)C(=O)O [D-isomer, α-methyl-D-tryptophan]

- potency as a blocker of ATB0,+ (in words) (ATB0,+ [1]): more potent than α-methyl-D-tryptophan
- times less than the corresponding value for the DL-form (ATB0,+ [1]; 50% maximal inhibition concentration, L-isomer vs DL-form): 14 times
Molecule: C[C@](N)(Cc1c[nH]c2ccccc12)C(=O)O [α-MLT, α-methyl-L-tryptophan]
- potency as an IDO inhibitor (comparison, FIG. 1) [4]: significantly more potent than the D-isomer

- reversal of suppression of thymidine incorporation in T cells by IDO-positive DCs (IDO in DCs; 0.2 μM, IDO-positive DCs (10^5 cells)): completely reversed
- concentration needed to inhibit IDO in DCs in cell-based ex-vivo assay system (IDO in DCs; cell-based ex-vivo assay): 0.2 µM
- IC50 ([4]; read-out: IC50 observed for the inhibition of IDO in the cell-free assay system): ~20 µM
Molecule: α-methyl-L-tryptophan [α-MLT]
